Assay results as given in the supplement of paper PMC13380429.

Legend:
Conditions in all cases: 72 h
Caco-2 [1] = assay: cell viability relative to DMSO; higher = less toxic
HepG2 [2] = assay: as above
U2OS [3] = assay: as above
Vero E6 [4] = assay: as above
Caco-2 [5] = assay: relative viability EC50 (midpoint between 100% and the lowest measured viability); higher = less toxic
HepG2 [6] = assay: as above
U2OS [7] = assay: as above
Vero E6 [8] = assay: as above
Caco-2 [9] = assay: drug sensitivity score (DSS) for viability; higher = more toxic; extreme values may be limits of the assay
HepG2 [10] = assay: as above
U2OS [11] = assay: as above
Vero E6 [12] = assay: as above
Calu-3 [13] = assay: as above
Calu-3 [14] = assay: cell viability relative to DMSO; higher = less toxic

SMILES	cell viability (Caco-2 [1]; 1 nM) [%]	cell viability (Caco-2 [1]; 10 nM) [%]	cell viability (Caco-2 [1]; 100 nM) [%]	cell viability (Caco-2 [1]; 1000 nM) [%]	cell viability (Caco-2 [1]; 10000 nM) [%]	cell viability (HepG2 [2]; 1 nM) [%]	cell viability (HepG2 [2]; 10 nM) [%]	cell viability (HepG2 [2]; 100 nM) [%]	cell viability (HepG2 [2]; 1000 nM) [%]	cell viability (HepG2 [2]; 10000 nM) [%]	cell viability (U2OS [3]; 1 nM) [%]	cell viability (U2OS [3]; 10 nM) [%]	cell viability (U2OS [3]; 100 nM) [%]	cell viability (U2OS [3]; 1000 nM) [%]	cell viability (U2OS [3]; 10000 nM) [%]	cell viability (Vero E6 [4]; 1 nM) [%]	cell viability (Vero E6 [4]; 10 nM) [%]	cell viability (Vero E6 [4]; 100 nM) [%]	cell viability (Vero E6 [4]; 1000 nM) [%]	cell viability (Vero E6 [4]; 10000 nM) [%]	relative viability EC50 (Caco-2 [5]) [µM]	relative viability EC50 (HepG2 [6]) [µM]	relative viability EC50 (U2OS [7]) [µM]	relative viability EC50 (Vero E6 [8]) [µM]	drug sensitivity score (Caco-2 [9])	drug sensitivity score (HepG2 [10])	drug sensitivity score (U2OS [11])	drug sensitivity score (Vero E6 [12])	drug sensitivity score (Calu-3 [13])	cell viability (Calu-3 [14]; 1 nM) [%]	cell viability (Calu-3 [14]; 10 nM) [%]	cell viability (Calu-3 [14]; 100 nM) [%]	cell viability (Calu-3 [14]; 1000 nM) [%]	cell viability (Calu-3 [14]; 10000 nM) [%]
C[N+](C)(C)NCCC(=O)O [meldonium]	96.1	101	102	92	102	97.6	96.1	98.4	107	101	102	99.1	104	97.7	101	99.1	105	95.5	97	101	> 10	> 10	> 10	> 10	0	0	0	0						
N.N.O=C([O-])C[O-].[Pt+2] [nedaplatin]																										0								
C#C[C@]1(O)CC[C@H]2[C@@H]3CCC4=C(CCC(=O)C4)[C@H]3CC[C@@]21C [noretynodrel]	99.5	105	104	96.1	99											95.2	99	93.7	95.9	101	> 10			> 10	0			0						
C[C@H](/C=C/[C@H](C)C(C)(C)O)[C@H]1CC[C@H]2/C(=C/C=C3C[C@@H](O)C[C@H](O)C3)CCC[C@]12C [paricalcitol]	102	101	98.8	89.8	96.5	101	99.2	99.3	95.6	82.1	107	98.1	98.9	97.6	99.3	96.6	97.3	95.4	103	101	> 10	> 10	> 10	> 10	0.1	0.9	0	0						
CC(=O)c1ccc2c(c1)N(CCCN1CCC(CCO)CC1)c1ccccc1S2 [piperacetazine]																										0.9	0	0	0					
Cc1cc(CC(C)CC(C)(C)C)n(O)c(=O)c1 (configuration not stated) [piroctone-olamine]	100	96.3	103	97.6	68	97.6	102	102	110	93.3	95.1	93.9	100	88	54.8	102	96.1	104	95.5	108		> 10		> 10	1.8	0	4.2	0	3.4	98	97.1	102	80	72.4
